This note sets out measurements from publication PMC11971087, “Unveiling the in vitro activity of extracted Euphorbia trigona via Supercritical Fluid Extraction against pathogenic yeasts, obesity, cancer, and its wound healing properties” (Bioresources and Bioprocessing, 2025).

Each structure is given as a SMILES string. Converted amounts (≈) assume the structure as drawn.

The test has as its target T1, lipase.
T1 construct: gene PNLIP; pig pancreas is only the usual preparation
The test can be described thus: 4-nitrophenyl butyrate hydrolysis, absorbance at […] nm. It counts as biochemical. To be noted: potassium phosphate pH 7.0, 37 °C, 10 min, standard drug, covalent.

Take `CCCCCCCCCCC[C@@H](C[C@@H]1OC(=O)[C@H]1CCCCCC)OC(=O)[C@H](CC(C)C)NC=O` [Orlistat]: the IC50 (in general, the midpoint of a concentration-inhibition curve) is on record as 6.4 µg/mL (≈ 12.9 µM).
